Active and inactive are the calls of the source. The rule behind the calls is not given here.

The nature of series [1]: Toxicity in human HT-29 cells xenografted Balb/c mouse assessed as change in kidney pathology at 10 mg/kg/day, ip administrated for twice a week and measured after 28 days. It counts as organism-based. Conditions: in vivo, 672 h, time 28 day. Background: Xenograft models place foreign cells or tissue in a host animal.
Series [2] concerns HT-29. In words: Antitumor activity against human HT-29 cells xenografted Balb/c mouse assessed as reduction in tumor growth at 10 mg/kg/day, ip administrated for twice a week and measured after 28 days. It counts as functional, organism-based. Conditions: time 28.0 day.
Series [3] deals with HT-29. Kind of series: Inhibition of HER2 in human HT-29 cells xenografted in BALB/c nude mouse assessed as HER2 protein expression level in tumor at 10 mg/kg/day, ip administrated for twice a week and measured after 28 days by Western blotting analysis. The class given is functional, organism-based. Conditions: time 28.0 day.
Series [4] can be described thus: Toxicity in human HT-29 cells xenografted Balb/c mouse assessed as change in lung pathology at 10 mg/kg/day, ip administrated for twice a week and measured after 28 days. It counts as organism-based. As to conditions: in vivo, 672 h, time 28 day.
The test system of series [5] is HT-29. In words: Inhibition of HER2 in human HT-29 cells xenografted in BALB/c nude mouse assessed as HER2 protein level in tumor at 10 mg/kg/day, ip administrated for twice a week and measured after 28 days by Western blotting analysis. It counts as functional, organism-based. Conditions: time 28.0 day.
Series [6] concerns HT-29. Kind of series: Antitumor activity against human HT-29 cells xenografted Balb/c mouse assessed as reduction in tumor cell density at 10 mg/kg/day, ip administrated for twice a week and measured after 28 days by Hematoxylin and Eosin staining based method. The class given is functional, organism-based. Conditions: time 28.0 day.
Series [7] deals with HT-29. Kind of series: Inhibition of EGFR in human HT-29 cells xenografted in BALB/c nude mouse assessed as EGFR protein level in tumor at 10 mg/kg/day, ip administrated for twice a week and measured after 28 days by Western blotting analysis. The class given is functional, organism-based. As to conditions: time 28.0 day.
Series [8] deals with HT-29. Kind of series: Antitumor activity against human HT-29 cells xenografted Balb/c mouse assessed as inhibited tumor growth at 10 mg/kg/day, ip administrated for twice a week and measured after 6 days. The class given is functional, organism-based. As to conditions: time 6.0 day.
The nature of series [9]: Toxicity in human HT-29 cells xenografted Balb/c mouse assessed as change in body weight at 10 mg/kg/day, ip administrated for twice a week and measured after 6 days. It counts as organism-based. As to conditions: in vivo, 144 h, time 6 day.
A short description of series [10]: Toxicity in human HT-29 cells xenografted Balb/c mouse assessed as change in spleen pathology at 10 mg/kg/day, ip administrated for twice a week and measured after 28 days. It counts as organism-based. As to conditions: in vivo, 672 h, time 28 day.
The nature of series [11]: Toxicity in human HT-29 cells xenografted Balb/c mouse assessed as change in heart pathology at 10 mg/kg/day, ip administrated for twice a week and measured after 28 days. Conditions: in vivo, 672 h, time 28 day. The class given is organism-based.
In series [12] the test system is HT-29. In words: Inhibition of EGFR in human HT-29 cells xenografted in BALB/c nude mouse assessed as reduction in EGFR protein expression level in tumor at 10 mg/kg/day, ip administrated for twice a week and measured after 28 days by Western blotting analysis. Conditions: time 28.0 day. The class given is functional, organism-based.
Series [13] is described as follows: Toxicity in human HT-29 cells xenografted Balb/c mouse assessed as change in liver pathology at 10 mg/kg/day, ip administrated for twice a week and measured after 28 days. The class given is organism-based. Conditions: in vivo, 672 h, time 28 day.
The subject of series [14] is HT-29. In words: Antitumor activity against human HT-29 cells xenografted Balb/c mouse assessed as reduction in Ki67 expression level at 10 mg/kg/day, ip administrated for twice a week and measured after 28 days by immunohistochemistry staining method. The class given is functional, organism-based. As to conditions: time 28.0 day.

Consider `O=c1[nH]cc(F)c(=O)[nH]1` [FLUOROURACIL], for which the Activity entry in [1], in [4], in [9], in series [10], in series [11] and in series [13] was “Non-Toxic” in each case. Also, the result in series [2], in series [6] and in series [14] was Active. The inhibition entry in [3] and in series [5] was “inactive” in each case. For the same compound, the inhibition result in series [7], in series [8] and in [12] was “Active” each time.
